# In patent US9949980B2, “Drugs to prevent HPV infection” (Wisconsin Alumni Research Foundation, priority 2008, dated 2018):
# Tests used:
# [1] = tested on: HPV16 pseudoviruses; assay: microbe, parasite or virus in culture; assay type: cell-based; settings: 3 μM HTS standard concentration
# Procedure, shortened: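 Viability was read by CellTiter Glo luminescence on the same wells used for the SEAP infection read-out, after 48 hrs further incubation.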
# [2] = tested on: 293T cells; assay: Primary HTS: cell viability (CellTiter Glo) in parallel on the same wells; settings: 3 μM HTS standard concentration, 293T cells
substance,measurement,setting,value
"-[(3-fluorophenypamino]-3-methylpyrido[1,2-a]benzimidazole-4-carbonitrile [Compound 5873417]",Infectivity (SEAP Activity),"[1]; 293T cells, 48 hrs",46.16%
same,Infectivity vs. viability,[1]; ratio infectivity/viability,45.53%
same,Viability (CelTiter Glow),[2],101.39%
